Consider three compounds from publication PMC9424909, “Rutin alleviated acrolein-induced cytotoxicity in Caco-2 and GES-1 cells by forming a cyclic hemiacetal product” (Frontiers in Nutrition, 2022).

Where “and” joins values, the source holds several entries; their conditions need not be identical. Equal entries are not always repeated. Where two headings read alike, the source gives them in different places.

One may read the viability as a read-out of living cells in per cent, often relative to untreated cells. The term IC50 denotes the midpoint of a concentration-inhibition curve.

Details of data set [1]: method as in PMID 19743801. The settings on record: simulated physiological conditions ref 21; cited from earlier work.
The conditions of data set [2]: incubating with equal concentrations of ACR for 12 h at 37°C ref 25; cited from earlier work.
Data set [3] is described as follows: in vitro simulated oral, gastric and intestinal digestion of RAC (HPLC). The data set is classed as in vitro ADME. On the procedure:
The simulated oral, gastric, and intestinal digestion experiments of RAC were carried out according to Mamone et al. ([39]) with minor adjustments. One milliliter of RAC (1 mg/mL) was mixed with 4 mL SSF and stirred at 170 rpm for 2 min in lightproof condition to mimic the oral phase digestion. Based on the oral stage, 10 mL of SGF was added and reacted for another 2 h under the same condition to imitate the gastric phase digestion. To investigate the intestinal phase digestion, 20 mL of SIF was further added, and the mixture was stirred for another 2 h after simulated gastric digestion. For each stage, the same volume of deionized water was used in place of the corresponding digestive fluid as the control. At the end of each stage, 0.8 mL of the mixture was withdrawn and diluted with MeOH to 1.0 mL for HPLC analysis.
The standard curve of RAC was prepared as follows: one milligram of RAC was dissolved with MeOH to a final concentration of 1 mg/mL. The above solution was further used to prepare a series of RAC concentrations at 0.02, 0.04, 0.08, 0.2, and 1.0 mg/mL, respectively. The HPLC conditions for the determination of the content of RAC in the digestion mixture and the preparation of the standard curve of RAC were the same as those for the analysis of RAC, except that the detection wavelength was at 358 nm.

For data set [4], the system named is GES-1 cells. Nature of the data set: JC-1 staining, mitochondrial membrane potential (MMP). To be noted: 24 h. The format is cell-based, human. How it is done:
(§1) The Caco-2 cell line and GES-1 cell line were obtained from iCell Bioscience (Shanghai, China). As described by Chai et al. ([40]) with a bit modification, the Caco-2 cells were cultured within a medium composed of DMEM supplemented with 1% (v/v) NEAA, 10% (v/v) FBS, and penicillin and streptomycin (100 U/mL). GES-1 cells were cultivated according to Xu et al. ([41]) with slight modifications as follows: DMEM medium including 1% (v/v) NEAA, 10% (v/v) FBS, and penicillin and streptomycin (100 U/mL). Cells were all maintained in a humidified incubator containing 5% CO2 and 95% air at 37°C.
(§2) After incubation with different concentrations of samples, the changes of MMP in Caco-2 and GES-1 cells were measured in accordance with Liu et al., with slight modifications ([43]). In brief, cells (1 × 10^4 cells/well) were exposed to different concentrations of ACR and RAC for 24 h, respectively. Then 500 μL of JC-1 staining solution was added into each well and the plate was further incubated at 37°C for 15 min. Cells were then rinsed twice with 1 mL of staining buffer and resuspended with 500 μL of staining buffer prior to MMP determination in the flow cytometry.

Data set [5] has as its system Caco-2 cells. The description is as above. The data set is classed as cell-based, human. The settings on record: 24 h. On the procedure: as §1, §2
The test system of data set [6] is GES-1 cells. As to the kind of experiment: apoptosis assay, Annexin-V FITC/PI flow cytometry. The format is cell-based, human. To be noted: GES-1, 60 μM. On the procedure: as §1
(§3) Cell apoptosis assay was conducted in refer to Abas et al. ([42]) with modifications. In short, cells at a density of 1 × 10^4 cells/well were seeded in 96-well plates and incubated overnight, followed by exposure to different concentrations of ACR and RAC for another 24 h. After that, cells were rinsed twice with PBS, resuspended in 200 μL of Annexin-binding buffer, and finally stained with Annexin-V FITC and PI (5 μL each) for 10 min at 37°C in darkness. After adding 400 μL of Annexin-binding buffer, the signal intensity was measured using a FACSCalibur (Becton Dickinson, CA, USA) flow cytometry within 1 h, and data was analyzed with FlowJo software (Ashland, OR, USA).
(A flow cytometer gives signals particle by particle.)

Data set [7] concerns Caco-2 cells. As to the kind of experiment: apoptosis assay, Annexin-V FITC/PI flow cytometry. The data set is classed as cell-based, human. To be noted: 24 h. How it is done:
as §1, §3

The subject of data set [8] is GES-1 cells. Nature of the data set: cell survival, CCK-8 assay. The data set is classed as cell-based, human. The settings on record: GES-1. On the procedure:
as §1
(§4) The effects of ACR and RAC on cell survival (both Caco-2 and GES-1 cells) were measured by the CCK-8 assay ([41]). Briefly, cells (1 × 10^4 cells/well) were seeded into a 96-well plate and cultivated overnight. […] After cells were rinsed twice with PBS and resuspended in 100 μL of DMEM supplemented with 10% FBS, 10 μL of CCK-8 solution was added into each well and the plate was maintained for 1 h in the incubator. The plate was read at 450 nm on a microplate reader (BioTek, Epoch 2, USA), and all experiments were performed thrice. Cell viability was expressed as a percentage of the control group as shown below:
(§5) Cell viability (%) = A sample/A control × 100%
(§6) Where A sample was the absorbance (Abs) of the cells incubated with different concentrations of sample solutions, and A control was the Abs of the cells incubated without sample solution.

A short description of data set [9]: cell survival, CCK-8 assay. The data set is classed as cell-based, human. To be noted: human; for viability at 24 h, 140 µM: incubation 24 h, read-out: cell viability (viable cell number); for IC50 at 48 h: read-out: IC50 (cytotoxicity). How it is done:
as §1, §4, §5, §6

Data set [10] deals with Caco-2 cells. Nature of the data set: cell survival, CCK-8 assay. The format is cell-based, human. The settings on record: Caco-2. On the procedure:
as §1, §4, §5, §6
On the technique in general: Tetrazolium dyes change colour on reduction, which living cells bring about.

Turning to `O=C(CCc1ccc(O)cc1)c1c(O)cc(O)cc1O` [phloretin], in data set [1], the ACR quenched result is “more than 99%”.

As for `COc1ccc([C@@H]2CC(=O)c3c(O)cc(O)cc3O2)cc1O` [hesperetin], the ACR eliminated in data set [2] is recorded as 94.87%.

Consider `CC1OC(OCC2OC(Oc3c(-c4ccc(O)c(O)c4)oc4c5c(cc(O)c4c3=O)OC(O)CC5)C(O)C(O)C2O)C(O)C(O)C1O` (racemic) [RAC], for which the “The amount of RAC” value in data set [3] (Initial) is 2.99 ± 0.01 mg; in data set [3] (SGF 30 min (gastric)), 2.50 ± 0.06 mg and 2.50 ± 0.06 a mg; in data set [3] (SGF 60 min (gastric)) it was 2.51 ± 0.04 a mg; in [3] (SGF 90 min (gastric)) it was 2.36 ± 0.04 b mg; in data set [3] (SGF 120 min (gastric)) it was 2.26 ± 0.03 b mg; in data set [3] (SIF 30 min (intestinal)), 2.59 ± 0.01 a mg. For the same compound, the “The amount of RAC” value in data set [3] (SIF 60 min (intestinal)) was 2.55 ± 0.01 b mg; in data set [3] (SIF 90 min (intestinal)), 2.56 ± 0.01 b mg; in data set [3] (SIF 120 min (intestinal)), 2.50 ± 0.01 mg and 2.50 ± 0.01 c mg; in data set [3] (SSF 2 min (oral)) it was 2.98 ± 0.01 mg. The “Decrease of RAC” value in data set [3] (SGF 30 min (gastric)) is 16.39%; in data set [3] (SGF 60 min (gastric)) it was 16.05%; in data set [3] (SGF 90 min (gastric)) it was 21.07%; in data set [3] (SGF 120 min (gastric)), 24.41%; in data set [3] (SIF 30 min (intestinal)), 13.38%; in [3] (SIF 60 min (intestinal)), 14.72%. For the same compound, the “Decrease of RAC” value in data set [3] (SIF 90 min (intestinal)) is recorded as 14.38%; in data set [3] (SIF 120 min (intestinal)), 16.39%; in data set [3] (SSF 2 min (oral)) it was 0.33%. The “The content of RAC” value in data set [3] (SGF 60 min (gastric)) is 0.167 ± 0.0028 mg/mL; in [3] (SGF 90 min (gastric)), 0.157 ± 0.0029 mg/mL; in data set [3] (SIF 30 min (intestinal)), 0.074 ± 0.0002 mg/mL; in data set [3] (SIF 60 min (intestinal)), 0.073 ± 0.0002 mg/mL; in data set [3] (SIF 90 min (intestinal)), 0.073 ± 0.0002 mg/mL; in data set [3] (SIF 120 min (intestinal)) it was 0.072 ± 0.0004 mg/mL. In data set [3] (SSF 2 min (oral)), the “The content of RAC” value was 0.595 ± 0.0018 mg/mL. For the same compound, the “ratio of red/green fluorescence intensity” value with GES-1 cells [4] (GES-1, 20 μM) is 13.32 ± 0.43; in the data set with GES-1 cells [4] (GES-1, 40 μM), 10.59 ± 0.33; with GES-1 cells [4] (GES-1, 60 μM), 6.72 and 6.72 ± 0.30; in the data set with Caco-2 cells [5] (Caco-2, 20 μM), 17.64 ± 0.69; with Caco-2 cells [5] (Caco-2, 40 μM), 15.16 ± 0.59; in the data set on Caco-2 cells [5] (Caco-2, 60 μM), 9.47 and 9.47 ± 0.37. Further, the “apoptotic rate, fold below the 60 μM ACR-treated group” value in the data set on GES-1 cells [6] came to 5.4 fold. The apoptotic rate in the data set with GES-1 cells [6] (24 h) was found to be 12.59%. Moreover, the apoptotic cells in the data set on Caco-2 cells [7] (Caco-2, 20 μM) is given as 8.3%; with Caco-2 cells [7] (Caco-2, 60 μM), 10.81%. Further, the “viability of RAC-treated cells, fold higher than ACR-treated cells” value in the data set on GES-1 cells [8] worked out at 6.5 fold; in the data set on Caco-2 cells [10], 10 fold. Also, the viability at 24 h, 140 µM was over 75% in data set [9] (Caco-2 cells, Caco-2, 140 μM) and over 75% in data set [9] (GES-1 cells, GES-1, 140 μM). The IC50 at 48 h was over 140 µM in [9] (Caco-2 cells, Caco-2, CCK-8) and over 140 µM in data set [9] (GES-1 cells, GES-1, CCK-8).
